One block for each molecule: values may come before it.
Experiments:
Integrin alpha-V/beta-3 [1] = molecular target: T1, Integrin alpha-V/beta-3 (Homo sapiens, UniProt P05106+P06756); experiment: Inhibition of recombinant human Integrin alphaVbeta3 using TMB as substrate incubated for 2 hrs in presence of vitronectin by ELISA; type: protein-complex assay
Integrin alpha-V/beta-8 [2] = molecular target: T2, Integrin alpha-V/beta-8 (Homo sapiens, UniProt P06756+P26012); experiment: Inhibition of recombinant human Integrin alphaVbeta8 using TMB as substrate incubated for 2 hrs in presence of LAP by ELISA; type: protein-complex assay
Integrin alpha-V/beta-6 [3] = molecular target: T3, Integrin alpha-V/beta-6 (Homo sapiens, UniProt P06756+P18564); experiment: Inhibition of recombinant human Integrin alphaVbeta6 using TMB as substrate incubated for 2 hrs in presence of LAP by ELISA; type: protein-complex assay
Integrin alpha-V/beta-5 = Integrin alpha-V/beta-5 (Homo sapiens, UniProt P06756+P18084); experiment: Inhibition of recombinant human Integrin alphaVbeta5 using TMB as substrate incubated for 2 hrs in presence of fibronectin by ELISA; type: protein-complex assay
Integrin alpha-V/beta-1 [4] = molecular target: T4, Integrin alpha-V/beta-1 (Homo sapiens, UniProt P05556+P06756); experiment: Inhibition of recombinant human Integrin alphaVbeta1 using TMB as substrate incubated for 2 hrs in presence of fibronectin by ELISA; type: protein-complex assay
Integrin alpha-5/beta-1 [5] = molecular target: T5, Integrin alpha-5/beta-1 (Homo sapiens, UniProt P05556+P08648); experiment: Inhibition of recombinant human Integrin alpha5beta1 using TMB as substrate incubated for 2 hrs in presence of fibronectin by ELISA; type: protein-complex assay
Integrin alpha-4/beta-1 [6] = molecular target: T6, Integrin alpha-4/beta-1 (Homo sapiens, UniProt P05556+P13612); experiment: Inhibition of recombinant human Integrin alpha4beta1 using TMB as substrate incubated for 2 hrs in presence of VCAM-1 by ELISA; type: protein-complex assay
Integrin alpha-V/beta-1 [7] = molecular target: T4, Integrin alpha-V/beta-1; experiment: Inhibition of recombinant human Integrin alphaVbeta1 mediated cellular adhesion expressed in CHO-B2 cell incubated for 24 hrs in presence of Ca2+ and Mg2+ by real-time cell analysis; type: cell-based
Integrin alpha-4/beta-1 [8] = molecular target: T6, Integrin alpha-4/beta-1; experiment: Inhibition of Integrin alpha4beta1 mediated cellular adhesion in human Jurkat cells incubated for 24 hrs in presence of Ca2+ and Mg2+ by real-time cell analysis; type: cell-based
Integrin alpha-8/beta-1 = Integrin alpha-8/beta-1 (Homo sapiens, UniProt P05556+P53708); experiment: Inhibition of recombinant human Integrin alpha8beta1 mediated cellular adhesion expressed in HEK cells incubated for 24 hrs in presence of Ca2+ and Mg2+ by real-time cell analysis; type: cell-based
Integrin alpha-V/beta-3 [9] = molecular target: T1, Integrin alpha-V/beta-3; experiment: Inhibition of recombinant human Integrin alphaVbeta3 mediated cellular adhesion expressed in HEK cells incubated for 24 hrs in presence of Ca2+ and Mg2+ by real-time cell analysis; type: cell-based
Integrin alpha-V/beta-6 [10] = molecular target: T3, Integrin alpha-V/beta-6; experiment: Inhibition of human Integrin alphaVbeta6 expressed in SW480 cells cocultured with TGF-beta expressing Mv1Lu cells assessed as inhibition of integrin alphaVbeta6 mediated TGF-beta transactivation by luciferase assay; type: cell-based
Integrin alpha-5/beta-1 [11] = molecular target: T5, Integrin alpha-5/beta-1; experiment: Inhibition of Integrin alpha5beta1 mediated cellular adhesion in human HCT-116 cells incubated for 24 hrs in presence of Ca2+ and Mg2+ by real-time cell analysis; type: cell-based
Integrin alpha-V/beta-1 [12] = molecular target: T4, Integrin alpha-V/beta-1; experiment: Inhibition of human Integrin alphaVbeta1 expressed in CHO-B2 cell cocultured with TGF-beta expressing Mv1Lu cells assessed as inhibition of integrin alphaVbeta1 mediated TGF-beta transactivation by luciferase assay; type: cell-based
Integrin alpha-V/beta-8 [13] = molecular target: T2, Integrin alpha-V/beta-8; experiment: Inhibition of Integrin alphaVbeta8 in human SNB-19 cells cocultured with TGF-beta expressing Mv1Lu cells assessed as inhibition of integrin alphaVbeta8 mediated TGF-beta transactivation by luciferase assay; type: cell-based
[14] = Apparent permeability across basolateral to apical side in dog MDCK-MDR1 cells incubated for 60 mins by HPLC analysis; type: ADME, cell-based, Canis lupus familiaris
[15] = Apparent permeability across apical to basolateral side in dog MDCK-MDR1 cells incubated for 60 mins by HPLC analysis; type: ADME, cell-based, Canis lupus familiaris

T1 sequence (P05106 27-788 limits assumed): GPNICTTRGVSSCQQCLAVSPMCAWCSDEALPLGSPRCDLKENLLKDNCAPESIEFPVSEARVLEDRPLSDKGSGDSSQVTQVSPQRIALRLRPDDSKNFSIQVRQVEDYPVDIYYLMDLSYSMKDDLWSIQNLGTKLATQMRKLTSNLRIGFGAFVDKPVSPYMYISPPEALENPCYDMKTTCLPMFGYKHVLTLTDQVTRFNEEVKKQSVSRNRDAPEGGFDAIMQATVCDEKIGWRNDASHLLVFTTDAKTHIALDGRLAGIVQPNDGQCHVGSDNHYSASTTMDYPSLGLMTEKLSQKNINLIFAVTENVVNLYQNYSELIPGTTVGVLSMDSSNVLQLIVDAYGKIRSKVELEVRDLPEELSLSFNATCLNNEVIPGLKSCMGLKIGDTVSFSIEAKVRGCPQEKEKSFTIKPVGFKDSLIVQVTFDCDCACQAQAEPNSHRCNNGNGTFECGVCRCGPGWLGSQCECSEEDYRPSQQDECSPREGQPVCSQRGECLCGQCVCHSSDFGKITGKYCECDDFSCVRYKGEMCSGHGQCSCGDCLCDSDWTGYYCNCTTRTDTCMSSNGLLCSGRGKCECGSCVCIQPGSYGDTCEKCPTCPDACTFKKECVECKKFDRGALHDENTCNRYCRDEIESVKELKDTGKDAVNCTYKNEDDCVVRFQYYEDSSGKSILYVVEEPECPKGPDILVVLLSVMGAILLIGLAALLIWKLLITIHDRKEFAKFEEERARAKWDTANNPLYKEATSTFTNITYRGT
T1 sequence (P06756 31-889 limits assumed): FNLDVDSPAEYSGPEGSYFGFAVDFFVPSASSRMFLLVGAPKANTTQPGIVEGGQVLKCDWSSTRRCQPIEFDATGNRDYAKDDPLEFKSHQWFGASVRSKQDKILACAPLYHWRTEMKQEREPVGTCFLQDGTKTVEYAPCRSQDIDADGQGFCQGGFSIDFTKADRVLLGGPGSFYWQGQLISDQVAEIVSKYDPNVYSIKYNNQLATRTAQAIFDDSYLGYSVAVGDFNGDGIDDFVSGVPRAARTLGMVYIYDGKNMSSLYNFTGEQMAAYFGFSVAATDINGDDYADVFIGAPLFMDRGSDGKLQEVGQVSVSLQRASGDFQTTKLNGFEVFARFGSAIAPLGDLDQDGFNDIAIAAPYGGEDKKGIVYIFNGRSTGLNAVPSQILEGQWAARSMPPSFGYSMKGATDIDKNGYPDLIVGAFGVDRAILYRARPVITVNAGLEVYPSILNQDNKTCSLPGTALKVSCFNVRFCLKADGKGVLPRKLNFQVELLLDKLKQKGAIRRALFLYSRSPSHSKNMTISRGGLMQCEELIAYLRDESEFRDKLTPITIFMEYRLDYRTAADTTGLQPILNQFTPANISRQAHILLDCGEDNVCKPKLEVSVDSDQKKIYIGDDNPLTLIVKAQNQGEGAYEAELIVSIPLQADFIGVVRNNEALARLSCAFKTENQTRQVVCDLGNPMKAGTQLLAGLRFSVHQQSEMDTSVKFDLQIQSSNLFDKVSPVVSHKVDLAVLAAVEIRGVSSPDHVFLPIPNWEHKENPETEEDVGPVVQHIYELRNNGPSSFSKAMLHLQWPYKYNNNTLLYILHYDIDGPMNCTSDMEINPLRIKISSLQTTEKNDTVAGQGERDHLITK
T1 sequence (P06756 891-1048 limits assumed): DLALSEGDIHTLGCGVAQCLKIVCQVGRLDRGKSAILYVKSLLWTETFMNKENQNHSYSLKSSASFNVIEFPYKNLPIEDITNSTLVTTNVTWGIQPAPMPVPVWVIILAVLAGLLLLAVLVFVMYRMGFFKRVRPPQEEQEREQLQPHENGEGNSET
T2 sequence (P06756 31-889 limits assumed): as the sequence (P06756 31-889 limits assumed) above
T2 sequence (P06756 891-1048 limits assumed): as the sequence (P06756 891-1048 limits assumed) above
T2 sequence (P26012 43-769 limits assumed): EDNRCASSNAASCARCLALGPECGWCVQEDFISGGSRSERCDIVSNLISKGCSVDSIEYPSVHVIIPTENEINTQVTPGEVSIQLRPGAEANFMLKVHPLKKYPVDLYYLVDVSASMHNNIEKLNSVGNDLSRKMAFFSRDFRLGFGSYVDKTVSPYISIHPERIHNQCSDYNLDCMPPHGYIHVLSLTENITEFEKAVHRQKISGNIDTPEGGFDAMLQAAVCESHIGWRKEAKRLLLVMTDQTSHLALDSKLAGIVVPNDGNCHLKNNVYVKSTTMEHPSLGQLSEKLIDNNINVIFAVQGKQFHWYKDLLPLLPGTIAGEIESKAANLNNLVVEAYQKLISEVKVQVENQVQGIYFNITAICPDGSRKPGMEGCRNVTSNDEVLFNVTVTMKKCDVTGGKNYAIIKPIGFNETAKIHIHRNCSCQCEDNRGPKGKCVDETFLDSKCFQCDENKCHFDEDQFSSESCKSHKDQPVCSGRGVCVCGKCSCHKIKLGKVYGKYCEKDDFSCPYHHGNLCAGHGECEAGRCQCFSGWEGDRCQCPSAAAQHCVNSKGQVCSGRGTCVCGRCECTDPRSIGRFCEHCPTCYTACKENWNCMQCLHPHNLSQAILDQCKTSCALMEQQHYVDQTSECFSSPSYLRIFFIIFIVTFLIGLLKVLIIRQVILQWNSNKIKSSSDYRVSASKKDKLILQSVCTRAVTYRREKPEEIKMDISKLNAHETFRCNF
T3 sequence (P06756 31-889 limits assumed): as the sequence (P06756 31-889 limits assumed) above
T3 sequence (P06756 891-1048 limits assumed): as the sequence (P06756 891-1048 limits assumed) above
T3 sequence (P18564 22-788 limits assumed): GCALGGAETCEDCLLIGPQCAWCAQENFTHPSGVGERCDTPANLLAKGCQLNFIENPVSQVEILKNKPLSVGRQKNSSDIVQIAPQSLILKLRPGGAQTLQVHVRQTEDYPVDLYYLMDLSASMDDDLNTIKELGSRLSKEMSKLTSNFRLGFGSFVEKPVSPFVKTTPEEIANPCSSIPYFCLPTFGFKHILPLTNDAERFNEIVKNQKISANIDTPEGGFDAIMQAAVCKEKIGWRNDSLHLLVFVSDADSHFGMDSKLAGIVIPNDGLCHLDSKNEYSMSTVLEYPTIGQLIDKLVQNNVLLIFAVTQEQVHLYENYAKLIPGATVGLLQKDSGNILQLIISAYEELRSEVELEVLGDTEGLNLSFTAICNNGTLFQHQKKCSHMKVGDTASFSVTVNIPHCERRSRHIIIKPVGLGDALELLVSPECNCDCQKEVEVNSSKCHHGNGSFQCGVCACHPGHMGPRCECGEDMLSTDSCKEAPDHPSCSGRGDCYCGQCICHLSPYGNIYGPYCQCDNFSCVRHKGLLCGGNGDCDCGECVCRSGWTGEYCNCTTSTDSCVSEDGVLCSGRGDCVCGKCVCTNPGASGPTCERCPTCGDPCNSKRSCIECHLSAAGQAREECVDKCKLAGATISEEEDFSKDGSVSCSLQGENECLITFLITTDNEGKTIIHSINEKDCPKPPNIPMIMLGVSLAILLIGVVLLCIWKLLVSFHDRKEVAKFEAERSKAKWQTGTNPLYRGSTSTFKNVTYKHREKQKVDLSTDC
T4 sequence (P05556 21-798 limits assumed): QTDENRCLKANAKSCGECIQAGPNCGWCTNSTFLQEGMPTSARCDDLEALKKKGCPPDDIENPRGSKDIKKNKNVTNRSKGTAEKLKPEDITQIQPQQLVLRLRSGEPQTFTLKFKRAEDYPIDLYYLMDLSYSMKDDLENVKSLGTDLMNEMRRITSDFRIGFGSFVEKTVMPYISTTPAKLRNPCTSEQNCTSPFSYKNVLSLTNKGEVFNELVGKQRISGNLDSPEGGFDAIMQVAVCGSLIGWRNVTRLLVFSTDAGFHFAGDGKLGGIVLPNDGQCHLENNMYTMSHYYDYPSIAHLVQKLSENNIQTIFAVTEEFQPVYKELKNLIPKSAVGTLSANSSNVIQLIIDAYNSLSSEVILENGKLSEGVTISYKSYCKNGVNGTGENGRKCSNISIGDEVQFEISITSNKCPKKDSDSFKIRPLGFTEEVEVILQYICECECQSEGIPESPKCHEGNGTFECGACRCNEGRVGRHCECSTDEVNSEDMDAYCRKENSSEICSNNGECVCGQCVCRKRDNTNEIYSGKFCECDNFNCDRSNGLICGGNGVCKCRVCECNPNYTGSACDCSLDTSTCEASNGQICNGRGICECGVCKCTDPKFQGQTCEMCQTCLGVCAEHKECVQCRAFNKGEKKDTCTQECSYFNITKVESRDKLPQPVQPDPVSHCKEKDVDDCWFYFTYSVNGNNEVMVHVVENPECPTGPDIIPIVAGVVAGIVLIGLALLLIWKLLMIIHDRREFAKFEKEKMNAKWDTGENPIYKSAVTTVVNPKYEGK
T4 sequence (P06756 31-889 limits assumed): as the sequence (P06756 31-889 limits assumed) above
T4 sequence (P06756 891-1048 limits assumed): as the sequence (P06756 891-1048 limits assumed) above

- IC50 (Integrin alpha-V/beta-3 [1]): > 10000 nM
- IC50 (Integrin alpha-V/beta-8 [2]): 1580 nM
- IC50 (Integrin alpha-V/beta-6 [3]): 3160 nM
- IC50 (Integrin alpha-V/beta-5): > 10000 nM
- IC50 (Integrin alpha-V/beta-1 [4]): 0.631 nM
- IC50 (Integrin alpha-5/beta-1 [5]): 251 nM
- IC50 (Integrin alpha-4/beta-1 [6]): 1580 nM
Structure (SMILES): COc1ccc(Cl)c(C(=O)N[C@@H](CNC(=O)Cn2c(=O)[nH]c3ncccc32)C(=O)O)c1F

- IC50 (Integrin alpha-V/beta-1 [4]): > 10000 nM
Structure (SMILES): Cc1nc2ccccc2n1CC(=O)NC[C@H](NC(=O)c1ccccc1Cl)C(=O)O

- IC50 (Integrin alpha-V/beta-1 [7]): 12.6 nM
- IC50 (Integrin alpha-4/beta-1 [8]): 34.7 nM
- IC50 (Integrin alpha-8/beta-1): 5890 nM
- IC50 (Integrin alpha-V/beta-3 [9]): > 10000 nM
- IC50 (Integrin alpha-V/beta-6 [10]): 316 nM
- IC50 (Integrin alpha-5/beta-1 [11]): 1000 nM
- IC50 (Integrin alpha-V/beta-1 [12]): 10 nM
- IC50 (Integrin alpha-V/beta-8 [13]): 1740 nM
Structure (SMILES): N=C(N)NCCCCC(=O)Nc1ccc(C[C@H](NC(=O)[C@@H]2CCCN2S(=O)(=O)c2ccccc2)C(=O)O)cc1

- IC50 (Integrin alpha-V/beta-3 [1]): 1 nM
- IC50 (Integrin alpha-V/beta-8 [2]): < 0.158 nM
- IC50 (Integrin alpha-V/beta-6 [3]): < 0.158 nM
- IC50 (Integrin alpha-V/beta-1 [4]): 0.2 nM
- IC50 (Integrin alpha-4/beta-1 [6]): 3160 nM
Structure (SMILES): O=C(CCCCc1ccc2c(n1)NCCC2)NCC(NC(=O)c1c(Cl)cccc1Cl)C(=O)O (racemic)

- IC50 (Integrin alpha-V/beta-1 [4]): 398 nM
Structure (SMILES): O=C(CN1Cc2ccccc2NC1=O)NC[C@H](NC(=O)c1ccccc1Cl)C(=O)O

- Papp B→A at 1 h [14]: 0.3 ×10⁻⁶ cm/s
- Papp A→B at 1 h [15]: 0.4 ×10⁻⁶ cm/s
- IC50 (Integrin alpha-V/beta-1 [4]): 79.4 nM
Structure (SMILES): Cc1cnc2[nH]c(=O)n(CC(=O)NC[C@H](NC(=O)c3c(Cl)ccc(C)c3F)C(=O)O)c2c1

- IC50 (Integrin alpha-V/beta-3 [1]): > 10000 nM
- IC50 (Integrin alpha-V/beta-8 [2]): > 10000 nM
- IC50 (Integrin alpha-V/beta-6 [3]): > 10000 nM
- IC50 (Integrin alpha-V/beta-5): > 10000 nM
- IC50 (Integrin alpha-V/beta-1 [4]): 200 nM
- IC50 (Integrin alpha-5/beta-1 [5]): > 10000 nM
Structure (SMILES): O=C(NC(CNc1ccccc1)C(=O)O)c1c(Cl)cccc1Cl (stereo unspecified)

— ChEMBL document CHEMBL5500400, “Design and Discovery of a Potent and Selective Inhibitor of Integrin αvβ1” (J Med Chem, 2024)
